Test results reported in PubChem BioAssay AID1963837 (Molecular Pharmacology Branch, DTP, NCI, 2024).

Test system: 843126-344-R-J1-PDC complex spheroid viability
Experiment: Anticancer human tumor 843126-344-R-J1-PDC patient-derived melanoma cell line growth inhibition [POLQ]
Conditions: for IC50: curve of first compound; for viability, T/C: stronger effect = lower value
Outline: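 Complex spheroid viability model combining PDC tumour cells with endothelial (HUVEC) and MSC stromal cells. Novobiocin, ART-558 or RP6685 were tested singly and in combination with standard and investigational anticancer drugs. Each was titrated in half-log steps from near clinical Cmax, or from 10 microM where Cmax was unknown.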

[1] = second compound 0.0316 µM, first compound 0.0316 µM
[2] = second compound 0.0316 µM, first compound 0.1 µM
[3] = second compound 0.0316 µM, first compound 0.316 µM
[4] = second compound 0.0316 µM, first compound 1 µM
[5] = second compound 0.0316 µM, first compound 3.16 µM
[6] = second compound 0.0316 µM, first compound 10 µM
[7] = second compound 0.1 µM, first compound 0.0316 µM
[8] = second compound 0.1 µM, first compound 0.1 µM
[9] = second compound 0.1 µM, first compound 0.316 µM
[10] = second compound 0.1 µM, first compound 1 µM
[11] = second compound 0.1 µM, first compound 3.16 µM
[12] = second compound 0.1 µM, first compound 10 µM
[13] = second compound 0.316 µM, first compound 0.0316 µM
[14] = second compound 0.316 µM, first compound 0.1 µM
[15] = second compound 0.316 µM, first compound 0.316 µM
[16] = second compound 0.316 µM, first compound 1 µM
[17] = second compound 0.316 µM, first compound 3.16 µM
[18] = second compound 0.316 µM, first compound 10 µM
[19] = second compound 1 µM, first compound 0.0316 µM
[20] = second compound 1 µM, first compound 0.1 µM
[21] = second compound 1 µM, first compound 0.316 µM
[22] = second compound 1 µM, first compound 1 µM
[23] = second compound 1 µM, first compound 3.16 µM
[24] = second compound 1 µM, first compound 10 µM
[25] = second compound 3.16 µM, first compound 0.0316 µM
[26] = second compound 3.16 µM, first compound 0.1 µM
[27] = second compound 3.16 µM, first compound 0.316 µM
[28] = second compound 3.16 µM, first compound 1 µM
[29] = second compound 3.16 µM, first compound 3.16 µM
[30] = second compound 3.16 µM, first compound 10 µM
[31] = second compound 10 µM, first compound 0.0316 µM
[32] = second compound 10 µM, first compound 0.1 µM
[33] = second compound 10 µM, first compound 0.316 µM
[34] = second compound 10 µM, first compound 1 µM
[35] = second compound 10 µM, first compound 3.16 µM
[36] = second compound 10 µM, first compound 10 µM
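Throughout, for viability, T/C: spheroids exposed to drugs for seven days before readout.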

What does the source list for `CC(C)n1c(=O)n(C)c2cnc3cc(F)c(-c4ccc(OCCCN5CCCCC5)nc4)cc3c21` + Cc1cccc(N(C)C(=O)C2C(O)CCN2c2nc(C)cc(C(F)(F)F)c2C#N)c1?
IC50 (second compound 0.0316 µM): > 10 µM; IC50 (second compound 0.1 µM): > 10 µM; IC50 (second compound 0.316 µM): > 10 µM; IC50 (second compound 1 µM): > 10 µM; IC50 (second compound 3.16 µM): > 10 µM; IC50 (second compound 10 µM): > 10 µM; viability, T/C [1]: 100%; viability, T/C [2]: 87.7%; viability, T/C [3]: 97.2%; viability, T/C [4]: 78.7%; viability, T/C [5]: 93%; viability, T/C [6]: 60.5%; viability, T/C [7]: 90.1%; viability, T/C [8]: 104%; viability, T/C [9]: 72.7%; viability, T/C [10]: 83.1%; viability, T/C [11]: 78.1%; viability, T/C [12]: 67.1%; viability, T/C [13]: 92%; viability, T/C [14]: 96.9%; viability, T/C [15]: 88.7%; viability, T/C [16]: 89.8%; viability, T/C [17]: 87.2%; viability, T/C [18]: 55.1%; viability, T/C [19]: 98.3%; viability, T/C [20]: 78%; viability, T/C [21]: 86.7%; viability, T/C [22]: 78.5%; viability, T/C [23]: 81%; viability, T/C [24]: 64.3%; viability, T/C [25]: 94.8%; viability, T/C [26]: 84.5%; viability, T/C [27]: 106%; viability, T/C [28]: 99.1%; viability, T/C [29]: 91.9%; viability, T/C [30]: 73.1%; viability, T/C [31]: 93.4%; viability, T/C [32]: 90.2%; viability, T/C [33]: 89.1%; viability, T/C [34]: 77.9%; viability, T/C [35]: 81.9%; viability, T/C [36]: 61.2%

What does the source list for `CC1COCCN1c1cc(C2(S(C)(=N)=O)CC2)nc(-c2ccnc3[nH]ccc23)n1` (stereo unspecified) + Nc1ccc(C#CCN(C(=O)Cc2ncc(C(F)(F)F)cc2C(F)(F)F)c2ccc(F)cc2)nn1?
IC50 (second compound 0.0316 µM): > 10 µM; IC50 (second compound 0.1 µM): > 10 µM; IC50 (second compound 0.316 µM): 9.88 µM; IC50 (second compound 1 µM): > 10 µM; IC50 (second compound 3.16 µM): > 10 µM; IC50 (second compound 10 µM): > 10 µM; viability, T/C [1]: 101%; viability, T/C [2]: 84.8%; viability, T/C [3]: 86.6%; viability, T/C [4]: 76.9%; viability, T/C [5]: 72.7%; viability, T/C [6]: 51.6%; viability, T/C [7]: 84.8%; viability, T/C [8]: 90.2%; viability, T/C [9]: 88.8%; viability, T/C [10]: 103%; viability, T/C [11]: 76.1%; viability, T/C [12]: 55.8%; viability, T/C [13]: 88.4%; viability, T/C [14]: 92.1%; viability, T/C [15]: 82.3%; viability, T/C [16]: 77.5%; viability, T/C [17]: 70%; viability, T/C [18]: 49.2%; viability, T/C [19]: 96.2%; viability, T/C [20]: 92.8%; viability, T/C [21]: 86.3%; viability, T/C [22]: 90.5%; viability, T/C [23]: 76.3%; viability, T/C [24]: 51.8%; viability, T/C [25]: 89.9%; viability, T/C [26]: 84%; viability, T/C [27]: 89%; viability, T/C [28]: 86.1%; viability, T/C [29]: 69.8%; viability, T/C [30]: 53.8%; viability, T/C [31]: 94.6%; viability, T/C [32]: 84%; viability, T/C [33]: 81.5%; viability, T/C [34]: 75.1%; viability, T/C [35]: 65.2%; viability, T/C [36]: 51.8%

Which results are given for `C#Cc1c(F)ccc2cc(O)cc(-c3ncc4c(N5CC6CCC(C5)N6)nc(OCC56CCCN5CC(F)C6)nc4c3F)c12` (stereo unspecified) + COC1C(OC(N)=O)C(O)C(Oc2ccc3c(O)c(NC(=O)c4ccc(O)c(CC=C(C)C)c4)c(=O)oc3c2C)OC1(C)C?
IC50 (second compound 0.0316 µM): > 10 µM; IC50 (second compound 0.1 µM): > 10 µM; IC50 (second compound 0.316 µM): > 10 µM; IC50 (second compound 1 µM): > 10 µM; IC50 (second compound 3.16 µM): > 10 µM; IC50 (second compound 10 µM): > 10 µM; viability, T/C [1]: 101%; viability, T/C [2]: 116%; viability, T/C [3]: 76.9%; viability, T/C [4]: 95.8%; viability, T/C [5]: 82.4%; viability, T/C [6]: 76%; viability, T/C [7]: 82%; viability, T/C [8]: 106%; viability, T/C [9]: 86.2%; viability, T/C [10]: 81.4%; viability, T/C [11]: 91.7%; viability, T/C [12]: 85.4%; viability, T/C [13]: 79.3%; viability, T/C [14]: 96.5%; viability, T/C [15]: 73.9%; viability, T/C [16]: 107%; viability, T/C [17]: 109%; viability, T/C [18]: 74.2%; viability, T/C [19]: 87.9%; viability, T/C [20]: 98.7%; viability, T/C [21]: 89.3%; viability, T/C [22]: 111%; viability, T/C [23]: 98.1%; viability, T/C [24]: 91.3%; viability, T/C [25]: 83.7%; viability, T/C [26]: 105%; viability, T/C [27]: 91.4%; viability, T/C [28]: 107%; viability, T/C [29]: 86.6%; viability, T/C [30]: 84%; viability, T/C [31]: 88.2%; viability, T/C [32]: 84.8%; viability, T/C [33]: 98.5%; viability, T/C [34]: 100%; viability, T/C [35]: 93.2%; viability, T/C [36]: 71.1%
